Assay results reported in US20070219248A1, “Salt of Oxalic Acid with -[4[2-(N-Methyl-N-(2-Pyridyl)-Amino)Ethoxy]Benzyl]Thiazolidin-2,4- Dione and a Method of its Preparation and its Use” (priority 2004, published 2007).
Entries after “also recorded” stand apart in the source; their conditions may differ. Counter-ions that a name gives are not always drawn.

Tests used:
[1] = Solubility of rosiglitazone salts in 0.1 M hydrochloric acid (Example 7); format: physicochemical; settings: 1 g salt
Description: Contrary to some other salts of rosiglitazone, the above-described crystalline salt of formula III is well soluble in water and in aqueous solutions of hydrochloric acid. Especially the solubility in solutions of hydrochloric acid is very important considering the acidobasic conditions in the digestive system (especially in the stomach). It offers indication of the solubility of the substance after it is digested, which is a very important factor for evaluating pharmaceutical effectiveness of the substance. A comparison of the solubility of the salt of the compound of formula III in acidic environment with some of several other rosiglitazone salts is documented in Example 7. […] However, neither the same amount of rosiglitazone hydrochloride prepared according to WO 2000/063205 nor the same amount of pharmaceutically used rosiglitazone maleate of formula II prepared according to WO 94/05659 could be dissolved under the same conditions.
Solubility was determined for crystalline rosiglitazone oxalate of chemical formula III, which was prepared by the procedure according to Example 1. 1 g of crystalline salt of formula III was dissolved under stirring and at 25° C. in 20, 30, 35 a 40 ml of a 0.1M solution of hydrochloric acid. The mixture was stirred at 25° C. for five minutes. When using 20 and 30 ml of the solvent, there was obtained no solution.

[2] = Solubility in water and aqueous hydrochloric acid, stated only in words; format: physicochemical; settings: crystalline form

Row | Dissolution of the same amount (1 g) at the same conditions ([1]; 20 to 40 ml 0.1M hydrochloric acid, 25° C., stirred five minutes) | Dissolution after extension of the time and another dilution ([1]; extended dissolution time, further dilution with 0.1 M hydrochloric acid) | Dissolution of 1 g of salt in 20 ml of solvent ([1]; 20 ml 0.1M hydrochloric acid, 25° C., stirred five minutes) | Dissolution of 1 g of salt in 30 ml of solvent ([1]; 30 ml 0.1M hydrochloric acid, 25° C., stirred five minutes) | Dissolution of 1 g of salt in 35 ml of solvent ([1]; 35 ml 0.1M hydrochloric acid, 25° C., stirred five minutes) | Solubility in water and in aqueous solutions of hydrochloric acid [2] | SMILES | Dissolution of 1 g of salt in 40 ml of solvent ([1]; 40 ml 0.1M hydrochloric acid, 25° C., stirred five minutes)
1 | neither dissolving | No solutions could be obtained |  |  |  |  | CN(CCOc1ccc(CC2SC(=O)NC2=O)cc1)c1ccccn1 (stereo not shown) [rosiglitazone maleate, reference compound] | 
2 |  |  | no solution | no solution | cloudy solution | well soluble | CN(CCOc1ccc(CC2SC(=O)NC2=O)cc1)c1ccccn1 (stereo not shown) [III] | completely dissolved; also recorded: no cloudy solution
